# Test results taken from patent US7063946B2, “Methods, reagents, kits and apparatus for protein function analysis” (Meso Scale Technologies, LLC., priority 2001, dated 2006).
# Tests used:
# Test in all cases: Kinase inhibitor profiling, pEY phosphorylation
# Format in all cases: biochemical
# [1] = biological target: T1, EphB4 (Mus musculus, UniProt P54761)
# T1 construct: specificity data for proteins generated from a library of eighteen full-length clones; host or cells: rabbit reticulocyte lysate, TnT coupled in vitro transcription/translation (cell-free)
# T1 sequence (P54761 16-987): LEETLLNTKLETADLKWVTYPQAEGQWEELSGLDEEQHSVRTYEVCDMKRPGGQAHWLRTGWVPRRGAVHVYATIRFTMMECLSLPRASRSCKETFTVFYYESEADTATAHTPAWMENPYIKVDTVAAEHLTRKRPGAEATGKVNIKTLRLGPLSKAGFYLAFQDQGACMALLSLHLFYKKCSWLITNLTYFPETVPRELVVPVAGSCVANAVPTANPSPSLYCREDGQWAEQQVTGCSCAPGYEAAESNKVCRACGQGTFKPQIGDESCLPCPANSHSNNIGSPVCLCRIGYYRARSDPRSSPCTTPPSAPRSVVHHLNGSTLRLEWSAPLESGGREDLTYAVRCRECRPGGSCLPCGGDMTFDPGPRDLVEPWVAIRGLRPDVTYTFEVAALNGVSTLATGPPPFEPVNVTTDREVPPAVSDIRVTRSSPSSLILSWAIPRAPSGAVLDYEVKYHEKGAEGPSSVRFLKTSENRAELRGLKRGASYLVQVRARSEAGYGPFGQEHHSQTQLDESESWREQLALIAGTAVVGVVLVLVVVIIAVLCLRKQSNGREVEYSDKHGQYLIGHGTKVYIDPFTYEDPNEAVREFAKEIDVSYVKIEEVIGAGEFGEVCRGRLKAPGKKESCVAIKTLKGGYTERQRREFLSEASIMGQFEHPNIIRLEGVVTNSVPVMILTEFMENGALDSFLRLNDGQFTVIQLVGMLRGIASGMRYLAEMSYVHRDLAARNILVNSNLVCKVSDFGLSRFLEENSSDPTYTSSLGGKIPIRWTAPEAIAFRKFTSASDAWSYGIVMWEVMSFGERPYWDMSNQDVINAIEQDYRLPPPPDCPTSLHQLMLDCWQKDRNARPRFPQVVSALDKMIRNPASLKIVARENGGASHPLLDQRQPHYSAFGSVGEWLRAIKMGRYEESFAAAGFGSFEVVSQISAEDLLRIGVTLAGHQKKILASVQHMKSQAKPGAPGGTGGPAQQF
# [2] = biological target: T2, Kit (Mus musculus, UniProt P05532)
# T2 construct: specificity data for proteins generated from a library of eighteen full-length clones; biotin on random lysines (biotin-Lys-tRNA); host or cells: rabbit reticulocyte lysate, coupled transcription/translation (TnT, Promega)
# T2 sequence (P05532 25-979): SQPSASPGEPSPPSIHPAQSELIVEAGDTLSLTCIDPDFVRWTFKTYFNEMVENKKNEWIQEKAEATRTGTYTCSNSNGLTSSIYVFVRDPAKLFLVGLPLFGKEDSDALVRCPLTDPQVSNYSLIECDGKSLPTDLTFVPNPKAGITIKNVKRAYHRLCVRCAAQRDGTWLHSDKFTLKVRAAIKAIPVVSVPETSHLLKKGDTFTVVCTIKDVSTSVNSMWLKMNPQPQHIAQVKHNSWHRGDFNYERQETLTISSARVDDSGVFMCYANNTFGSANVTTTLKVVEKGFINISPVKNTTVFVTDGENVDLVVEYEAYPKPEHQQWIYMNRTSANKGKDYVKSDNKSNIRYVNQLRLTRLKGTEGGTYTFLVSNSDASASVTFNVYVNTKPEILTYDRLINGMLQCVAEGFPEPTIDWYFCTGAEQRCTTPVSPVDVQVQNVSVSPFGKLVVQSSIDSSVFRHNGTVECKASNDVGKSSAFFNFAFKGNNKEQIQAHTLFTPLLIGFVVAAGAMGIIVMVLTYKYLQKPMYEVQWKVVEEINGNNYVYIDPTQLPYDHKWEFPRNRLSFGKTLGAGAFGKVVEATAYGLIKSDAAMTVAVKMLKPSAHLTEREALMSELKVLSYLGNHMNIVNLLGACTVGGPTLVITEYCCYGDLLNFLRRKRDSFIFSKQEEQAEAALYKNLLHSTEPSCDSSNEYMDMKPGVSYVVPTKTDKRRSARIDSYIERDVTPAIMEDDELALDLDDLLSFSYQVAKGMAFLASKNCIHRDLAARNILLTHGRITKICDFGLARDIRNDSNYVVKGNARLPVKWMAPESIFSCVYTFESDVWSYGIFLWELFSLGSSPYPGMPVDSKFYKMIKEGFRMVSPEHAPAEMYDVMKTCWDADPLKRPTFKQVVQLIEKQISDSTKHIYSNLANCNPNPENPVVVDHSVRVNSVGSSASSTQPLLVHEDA
# [3] = biological target: T3, FGFR1 (Homo sapiens, UniProt P11362)
# T3 construct: specificity data for proteins generated from a library of eighteen full-length clones; host or cells: rabbit reticulocyte lysate, TnT coupled transcription/translation
# T3 sequence (P11362 22-822): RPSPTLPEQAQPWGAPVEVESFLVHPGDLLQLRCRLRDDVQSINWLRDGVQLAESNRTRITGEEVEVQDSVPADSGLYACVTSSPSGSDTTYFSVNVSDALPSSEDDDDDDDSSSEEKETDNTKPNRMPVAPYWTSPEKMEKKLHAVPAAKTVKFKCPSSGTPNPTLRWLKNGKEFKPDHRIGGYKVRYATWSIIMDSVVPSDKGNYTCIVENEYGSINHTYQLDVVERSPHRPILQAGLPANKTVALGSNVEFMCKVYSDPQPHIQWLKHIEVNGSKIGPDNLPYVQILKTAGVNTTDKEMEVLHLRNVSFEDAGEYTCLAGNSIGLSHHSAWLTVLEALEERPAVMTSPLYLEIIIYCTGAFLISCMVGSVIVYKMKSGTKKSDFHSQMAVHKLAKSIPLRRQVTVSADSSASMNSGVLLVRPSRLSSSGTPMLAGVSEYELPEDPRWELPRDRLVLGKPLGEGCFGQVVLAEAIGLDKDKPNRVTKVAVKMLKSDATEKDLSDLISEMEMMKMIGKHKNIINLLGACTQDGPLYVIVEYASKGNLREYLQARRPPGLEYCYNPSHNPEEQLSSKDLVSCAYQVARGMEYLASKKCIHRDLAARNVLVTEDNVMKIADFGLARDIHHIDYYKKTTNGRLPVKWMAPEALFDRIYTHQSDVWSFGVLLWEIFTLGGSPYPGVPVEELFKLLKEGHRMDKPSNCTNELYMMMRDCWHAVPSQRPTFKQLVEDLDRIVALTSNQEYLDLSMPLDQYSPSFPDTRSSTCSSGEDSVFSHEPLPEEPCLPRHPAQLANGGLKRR
# [4] = biological target: T4, Fgfr4 (Mus musculus, UniProt Q03142)
# T4 construct: specificity data for proteins generated from a library of eighteen full-length clones; biotin on random lysines (biotin-Lys-tRNA); host or cells: rabbit reticulocyte lysate, coupled transcription/translation (TnT, Promega)
# T4 sequence (Q03142 17-799): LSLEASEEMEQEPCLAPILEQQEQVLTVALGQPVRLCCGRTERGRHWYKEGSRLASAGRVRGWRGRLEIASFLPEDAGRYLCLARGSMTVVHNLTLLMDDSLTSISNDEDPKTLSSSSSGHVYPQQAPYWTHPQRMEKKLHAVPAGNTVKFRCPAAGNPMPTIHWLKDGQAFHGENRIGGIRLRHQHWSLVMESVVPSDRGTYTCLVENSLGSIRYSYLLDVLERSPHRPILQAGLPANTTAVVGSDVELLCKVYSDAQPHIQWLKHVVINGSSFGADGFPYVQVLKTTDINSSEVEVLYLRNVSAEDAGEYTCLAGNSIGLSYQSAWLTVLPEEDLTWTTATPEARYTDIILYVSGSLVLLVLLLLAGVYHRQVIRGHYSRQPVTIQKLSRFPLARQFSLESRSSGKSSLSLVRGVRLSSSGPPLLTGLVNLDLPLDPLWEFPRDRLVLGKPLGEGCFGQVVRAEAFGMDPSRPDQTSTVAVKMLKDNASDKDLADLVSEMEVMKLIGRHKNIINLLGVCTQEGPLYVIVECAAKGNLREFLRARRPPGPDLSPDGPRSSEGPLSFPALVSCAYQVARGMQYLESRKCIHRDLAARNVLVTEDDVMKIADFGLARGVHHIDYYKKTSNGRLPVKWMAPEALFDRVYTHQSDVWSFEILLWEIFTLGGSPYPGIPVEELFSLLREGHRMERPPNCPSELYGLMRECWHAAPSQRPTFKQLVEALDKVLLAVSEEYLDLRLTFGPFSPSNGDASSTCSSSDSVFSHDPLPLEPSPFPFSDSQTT
Compound,"Inhibition specificity towards pEY phosphorylation at 10X IC50, EphB4 [1]","Inhibition specificity towards pEY phosphorylation at 10X IC50, Kit [2]","Inhibition specificity towards pEY phosphorylation at 10X IC50, FGFR1 [3]","Inhibition specificity towards pEY phosphorylation at 10X IC50, Fgfr4 [4]"
COC(=O)c1ccc(NCc2cc(O)ccc2O)cc1 [AG-957],L (low inhibition (“L”=between 50–75% of the activity remaining)),L (low inhibition (“L”=between 50–75% of the activity remaining)),L (low inhibition (“L”=between 50–75% of the activity remaining)),–
CC(C)(C)c1cc(C=C(C#N)C#N)cc(Br)c1O [AG-1024],L (low inhibition (“L”=between 50–75% of the activity remaining)),L (low inhibition (“L”=between 50–75% of the activity remaining)),L (low inhibition (“L”=between 50–75% of the activity remaining)),M (medium inhibition (“M”=between 25 to 50% of the activity remaining))
Cc1cc2ncc(-c3ccc(O)c(O)c3)nc2cc1C [AG-1433],H (high inhibition (“H”=less than 25% of the activity remaining)),H (high inhibition (“H”=less than 25% of the activity remaining)),H (high inhibition (“H”=less than 25% of the activity remaining)),H (high inhibition (“H”=less than 25% of the activity remaining))
COc1c(C=O)c(O)cc2c1C(=O)c1ccccc1C2=O [Damnacanthal],H (high inhibition (“H”=less than 25% of the activity remaining)),H (high inhibition (“H”=less than 25% of the activity remaining)),H (high inhibition (“H”=less than 25% of the activity remaining)),H (high inhibition (“H”=less than 25% of the activity remaining))
Cc1ccc(-c2nn(C(C)(C)C)c3ncnc(N)c23)cc1 [PP1],L (low inhibition (“L”=between 50–75% of the activity remaining)),M (medium inhibition (“M”=between 25 to 50% of the activity remaining)),L (low inhibition (“L”=between 50–75% of the activity remaining)),M (medium inhibition (“M”=between 25 to 50% of the activity remaining))
COc1cc2ncnc(Nc3ccc(Cl)cc3F)c2cc1OC [VEGFR inhibitor],M (medium inhibition (“M”=between 25 to 50% of the activity remaining)),L (low inhibition (“L”=between 50–75% of the activity remaining)),–,L (low inhibition (“L”=between 50–75% of the activity remaining))
COc1cc2ncnc(Nc3ccc(O)cc3)c2cc1OC [WHI-P131],M (medium inhibition (“M”=between 25 to 50% of the activity remaining)),H (high inhibition (“H”=less than 25% of the activity remaining)),L (low inhibition (“L”=between 50–75% of the activity remaining)),L (low inhibition (“L”=between 50–75% of the activity remaining))
Erbstatin analog,L (low inhibition (“L”=between 50–75% of the activity remaining)),L (low inhibition (“L”=between 50–75% of the activity remaining)),–,–
